Assay results as given in patent publication US20110275709A1, “TELLURIUM-CONTAINING COMPOUNDS FOR AFFECTING MALE'S FERTILITY FOLLOWING CHEMOTHERAPY AND/OR RADIOTHERAPY” (BIOMAS LTD., priority 2009, published 2011).
Entries after “also recorded” stand apart in the source; their conditions may differ. Like-named read-outs stand apart in the source and are kept apart here. Marks after values point to notes of the source that are not given here.

How the values were obtained:
Balb/c male mice [1] = settings: Cy 200 mg/kg ip once a week for 5 weeks; for Body weight / Epididymis weight / Epididymis weight (normalized to body weight) / Testes weight / Testes weight (normalized to body weight) / Sperm concentration: AS101 10 μg/mouse ip every other day; for Body weight / Epididymis weight / Epididymis weight (normalized to body weight) / Testes weight / Testes weight (normalized to body weight): sacrificed 5 weeks after last injection; for Sperm concentration: epididymal sperm
Protocol: In order to recover the motile epididymal spermatozoa, the two caudal epididymides were placed in M2 medium (Sigma), minced with fine scissors and incubated at 37° C. in an atmosphere of 95% air and 5% CO2 for 15 minutes prior to careful removal of all medium. Samples were then diluted to a final volume of 1 ml in M2. The concentration of sperm cells in the medium was then evaluated using a hemocytometer, and the samples were frozen at −80° C.
(§1) Ten mice were injected intraperitoneally (ip) with 200 mg/kg of cyclophosphamide (Cy) once a week for a period of 5 weeks (Cy group).
(§2) Another ten mice (Cy+AS101 group) were co-treated with Cy as described for the Cy group and with i.p. injections of AS101 at a dosage of 10 μg/mouse every other day, starting 1 week before the first Cy injection and continuing during the 5 weeks of Cy treatment.
(§3) An additional group of ten mice were injected with PBS only (PBS group), and another ten mice were treated with i.p. injections of AS101 at a dosage of 10 μg/mouse every other day (AS101 group), as described for the Cy+AS101 group. The animals from all groups were sacrificed 5 weeks after the last injection by cervical dislocation, and body weights were determined; thereafter, epididymides and testes were quickly dissected out, weighed and fixed.
Body weight, testes weight, testes weight normalized to body weight, epididymis weight, epididymis weight normalized to body weight, and sperm concentration were determined for the mice of each of the 4 treatment groups.

Balb/c male mice [2] = assay type: in vivo; settings: Cy 200 mg/kg ip weekly for 5 weeks, AS101 10 μg/mouse ip every other day; for testicular histology (seminiferous tubules, cross sections): FIGS. 7A-7D
Protocol: (§4) The removed testes were pierced with a needle and fixed in Bouin's fixative. After 24 hours, testes were washed three times and maintained in 70% ethanol. Samples were then embedded in paraffin and sectioned. Tissue sections (5 μm) were then stained using hematoxylin/eosin and examined randomly under a light microscope (AX70, Olympus, Tokyo, Japan) under ×100 magnification.
as §1, §2, §3

sperm nuclear DNA = assay type: in vivo, mice; settings: Cy 200 mg/kg ip weekly for 5 weeks; AS101 10 μg/mouse ip every other day; FIG. 9
Protocol: as §1, §2, §3

Balb/c male mice [3] = assay type: in vivo; settings: females mated with treated males, Cy 200 mg/kg ip weekly for 5 weeks
Protocol: (§5) Fertility assays were performed on the “chemotherapy only” group, “chemotherapy+AS101” group, and control (PBS) group. Each male was placed with three young virgin females, aged 6 weeks. These females were examined daily for vaginal plugs. Once mating was documented, females were separated, and the pregnancies allowed to progress. […] The number of pregnant females and litter size was noted.
as §1, §2, §3

[4] = system: phosphorylated Akt (pAkt); assay type: in vivo, mice; settings: relative to the PBS group; testes homogenate, densitometry; FIGS. 12A-B
Protocol: (§6) Frozen testes were homogenized in 1 ml of RIPA lysis buffer containing protease inhibitor cocktail and phosphatase inhibitor cocktail II. The tissue was then pulverized with a Dounce homogenizer and the homogenate subjected to centrifugation at 14,000 g for 15 minutes. The supernatant was collected and used for protein determination using Bradford reagent. Tissue samples were denatured in reducing buffer (62 mM Tris [pH 6.8], 10% glycerol, 2% sodium dodecyl sulfate [SDS], 5% f3-mercaptoethanol and 0.003% bromophenol blue) and separated by electrophoresis on an SDS (12%) polyacrylamide gel at 35 mA. The separated proteins were transferred onto a nitrocellulose membrane using the transfer buffer (39 mM glycine, 48 mM Tris [pH 8.3] and 20% methanol) at 20 V at 4° C. overnight. The membranes were stained with Ponceau S (0.005% in 1% acetic acid) to confirm equal amounts of protein, and blocked with 5% non-fat dry milk in Tris buffered saline with 0.1% TWEEN (TBS-T) for 1 hour at room temperature, and washed three times for 10 minutes each time in TBS-T. The following primary rabbit monoclonal antibodies were used: anti-human phospho-Akt1/2/3, anti-human GSK-3β and anti-human phospho-GSK-3β. Mouse antibody against chicken α-tubulin was used in order to confirm that the protein load was similar in all lanes. Membranes were incubated with the appropriate diluted antibody overnight at 4° C. After being washed three times for 10 minutes each time in TBS-T, the membranes were incubated for 1 hour at room temperature with peroxidase-conjugated goat anti-rabbit or goat anti-mouse IgG antibody. After washing, the membranes were analyzed by an enhanced chemiluminescence system according to the manufacturer's protocol (Pierce). Densitometry was conducted in order to quantify differences in band intensity using the Image J image-processing program (NIH, Bethesda, Md., USA). Results were normalized by comparison to the values in the PBS control group in each membrane.
(§7) Phosphorylation of Akt and GSK-3β was determined using gel electrophoresis and Western blotting, as described in the Materials and Methods section.

[5] = system: phosphorylated GSK-3β (pGSK-3β); assay type: in vivo, mice; settings: of the PBS group; testes homogenate, densitometry; FIGS. 13A-B
Protocol: as §6, §7

Balb/c male mice [6] = assay: Effect of treatments on testicular weight (procarbazine-induced testicular damage); assay type: in vivo; settings: AS101 10 μg/mouse ip every other day, FIG. 3
Text: Inbred Balb/c male mice, aged 5-6 weeks, were used. To ensure the fertility of the mice, each mouse was placed with two young healthy females.
(§8) The administration protocols for the four groups are depicted in FIG. 1.
Weights were normalized to the weight of the mouse. Each group contained 10 mice.

mice = settings: cited from earlier work
cancer patients = settings: AS101 in combination with chemotherapy; cited from earlier work
[7] = system: tumor models in mice and humans; settings: cited from earlier work
Balb/c male mice [8] = assay: Histological evaluation of testicular damage (procarbazine); assay type: in vivo; settings: three weekly injections of 200 mg/kg PCB; 5 mice per group; FIGS. 2A-2C
Protocol: as §4, §8
(§9) Each group contained 5 mice.

Balb/c male mice [9] = assay: Evaluation of male fertility (procarbazine); assay type: in vivo; settings: females mated with treated males, PCB single dose 200 mg/kg
Protocol: as §5
Each group contained 5 male mice.

testicular cells = assay: Analysis of testicular damage by DNA flow cytometry (procarbazine); assay type: in vivo; settings: PCB single dose 200 mg/kg; propidium iodide flow cytometry; 5 mice per group; FIG. 6
Protocol: Quantification of DNA content in testicular cell populations by propidium iodide staining followed by flow cytometry is an objective, rapid, and robust method for the analysis spermatogenic damage. The method provides quantitative values for evaluating the changes in the proportion in the number of 1N (mature and immature haploid), 2N (diploid), and 4N (tetraploid) cells in the testis. The method was performed as previously described (Malkov at al., 1998). Briefly, testes were dissected, decapsulated, and the contents of the testes were transferred into a tube containing 5 ml ice-cold separation medium. Then, a collagenase solution was added and incubation was carried out for 5 minutes at 37° C. under vigorous shaking. The seminiferous cords were allowed to sediment to the bottom of the tube while being incubated on ice. The seminiferous cords were washed twice in 10 ml separation medium, re-suspended in separation medium containing 2.5 mg/ml trypsin and 1U/ml DNase I, incubated for 2 minutes at 37° C., and transferred to ice. Using a Pasteur pipette, the seminiferous cords was disintegrated into single cells and were then filtered through a […] nylon mesh, washed twice with separation medium (centrifugation at 200-300 g), and counted. For FACS analysis, testicular cells were brought to a concentration of 2-3×10^6 cells/ml in separation medium and diluted 1:1 with propidium iodide solution (10 mM Tris pH 8, 1 mM NaCl, 0.1% Nonidet P-40, 0.7 mg/ml Rnase A, and 0.05 mg/ml propidium iodide). Cells were analyzed by a Becton-Dickinson (San Francisco, Calif.) FACSort instrument, equipped with an argon laser, within 2 hours from staining. Excitation was at 488 nm and emission at 585 nm. The parameters measured for each cell were forward scatter (FSC-H), side scatter (SSC-H), and total fluorescence emitted from the cell (FL2-A).
as §9

| SMILES | Body weight (Balb/c male mice [1]) | Epididymis weight (Balb/c male mice [1]) | Epididymis weight (normalized to body weight) (Balb/c male mice [1]) | Testes weight (Balb/c male mice [1]) | Testes weight (normalized to body weight) (Balb/c male mice [1]) | Sperm concentration (Balb/c male mice [1]) | testicular histology (seminiferous tubules, cross sections) (Balb/c male mice [2]) | average level of phosphorylated Akt (pAkt) [4] | level of phosphorylated GSK-3β (pGSK-3β) [5] | other results |
| --- | --- | --- | --- | --- | --- | --- | --- | --- | --- | --- |
| O=P1(N(CCCl)CCCl)NCCCO1 (stereo not drawn) [Cy, cyclophosphamide] | 22.8 ± 2.1 gram | 25.1 ± 2.9 mg | 1.1 ± 0.1 mg/gram body weight | 46.3 ± 8.7 mg | 1.98 ± 0.16 mg/gram body weight | 8.7 ± 1.6* 10^6 cells/ml | empty and atrophic seminiferous tubules | 55.3±25.6% | 36.4±12.5% | deaths (Balb/c male mice [1]): no deaths occurred; average percentage of damaged seminiferous tubules (Balb/c male mice [2]; FIG. 8): 76.0±10.8%; percentage of sperm cells with abnormal chromatin structure (% DFI) (sperm nuclear DNA): 44.7±1.0%; percentage of impregnated females (Balb/c male mice [3]; FIG. 10): 20.0±4.2%; litter size of females which did achieve pregnancy (Balb/c male mice [3]; FIG. 11): 4.3±1.4 |
| Cl[TeH]1(Cl)(Cl)OCCO1.N [AS101, ammonium trichloro(dioxyethylene-O,O′)tellurate] | 26.2 ± 1.0 gram | 34.2 ± 4.2 mg | 1.3 ± 0.1 mg/gram body weight | 105.7 ± 14.7 mg | 4.3 ± 0.3 mg/gram body weight | 22.5 ± 3.8 10^6 cells/ml | normal cellular content; also recorded: no effect on testicular histology | 175.3±28.4% | 130.3±16.9% | effect of AS101 alone on testicular weight (Balb/c male mice [6]; no PCB): no significant effect; protection from hematopoietic damage (mice; lethal and sublethal doses of chemotherapeutic drugs, including cyclophosphamide): protect mice from hematopoietic damage; survival of mice (mice; mice treated with various cytotoxic drugs or radiation): increase the survival of mice; severity of neutropenia, thrombocytopenia and alopecia that accompany chemotherapy (cancer patients): significant reduction in the severity of neutropenia, thrombocytopenia, and alopecia; combination effect with Cy ([7]; treatment of tumor-bearing mice): synergistic effect with Cy; anti-tumoral effect ([7]; variety of tumor models in mice and humans): clear anti-tumoral effect |
| CNNCc1ccc(C(=O)NC(C)C)cc1 [PCB, Procarbazine] | – | – | – | – | – | – | – | – | – | average testicular weight (Balb/c male mice [6]; PCB single dose 200 mg/kg, normalized to mouse weight, 10 mice per group): 1.9±0.2 mg per grams body weight; testicular histology (hematoxylin/eosin sections) (Balb/c male mice [8]): empty and atrophic seminiferous tubules; litter size (Balb/c male mice [9]; 5 male mice per group, FIG. 4): 1.4±2.9; percentage of impregnated females (Balb/c male mice [9]; FIG. 5): 20%; percentage of cells with 1N (haploid) DNA in the testes (testicular cells): 24.2±4.0%; percentage of cells with 2N (diploid) DNA in the testes (testicular cells): 54.9±4.2%; percentage of cells with 4N (tetraploid) DNA in the testes (testicular cells): 4.7±0.4% |
